Experimental data taken from PubChem BioAssay (NCI).
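Values below derive from 48-hour exposures of cells grown in 96-well plates, with endpoints linearly interpolated between the two concentrations bracketing the appropriate inhibition level. At the GI50, growth is halved. At the TGI there is no net growth.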

Tests used:
Test in all cases: NCI-60 cell line screen, 48 h
[1] = test system: MALME-3M melanoma
[2] = test system: NCI/ADR-RES ovarian
[3] = test system: SK-MEL-5 melanoma
[4] = test system: SK-MEL-28 melanoma
[5] = test system: M14 melanoma
[6] = test system: SF-295 CNS
[7] = test system: RXF 393 renal
[8] = test system: HCT-116 colon
[9] = test system: HOP-92 NSCLC
[10] = test system: HCT-15 colon
[11] = test system: A549 NSCLC
[12] = test system: HS 578T breast
[13] = test system: HT29 colon
[14] = test system: IGROV1 ovarian
[15] = test system: UO-31 renal
[16] = test system: SK-MEL-2 melanoma
[17] = test system: SK-OV-3 ovarian
[18] = test system: ACHN renal
[19] = test system: COLO 205 colon
[20] = test system: BT-549 breast
[21] = test system: LOX IMVI melanoma
[22] = test system: NCI-H460 lung
[23] = test system: EKVX NSCLC
[24] = test system: OVCAR-5 ovarian
[25] = test system: RPMI-8226 leukemia
[26] = test system: SNB-19 CNS
[27] = test system: UACC-62 melanoma
[28] = test system: CCRF-CEM leukemia
[29] = test system: UACC-257 melanoma

## O=C1[C@H]2Cc3c([nH]c4ccccc34)[C@@H](c3ccc(Br)cc3)N2C(=O)CN1C1CCN(Cc2ccccc2)CC1
[1]
  GI50: 3.69 µM
  TGI: 7.81 µM
[2]
  GI50: 3.58 µM
  TGI: 9.46 µM
[3]
  GI50: 3.84 µM
  TGI: 7.29 µM
[4]
  GI50: 4.41 µM
  TGI: 8.53 µM
[5]
  GI50: 3.24 µM
  TGI: 8.35 µM
[6]
  GI50: 4.56 µM
  TGI: 9.1 µM
[7]
  GI50: 2.91 µM
  TGI: 6.41 µM
[8]
  GI50: 2.54 µM
  TGI: 5.72 µM
[9]
  GI50: 2.65 µM
  TGI: 6.57 µM
[10]
  GI50: 2.62 µM
  TGI: 5.92 µM
[11]
  GI50: 3.7 µM
  TGI: 13.5 µM
[12]
  GI50: 3.4 µM
  TGI: 9.29 µM
[13]
  GI50: 3 µM
  TGI: 7.74 µM
[14]
  GI50: 1.49 µM
  TGI: 5.8 µM
[15]
  GI50: 1.13 µM
  TGI: 18.2 µM
[16]
  GI50: 5.73 µM
  TGI: 14.9 µM
[17]
  GI50: 6 µM
  TGI: > 25 µM
[18]
  GI50: 3.76 µM
  TGI: 9.65 µM
[19]
  GI50: 2.62 µM
  TGI: 6.04 µM
[20]
  GI50: 3.4 µM
  TGI: 7.49 µM
[21]
  GI50: 2.73 µM
  TGI: 6.92 µM
[22]
  GI50: 3.87 µM
  TGI: 7.82 µM
[23]
  GI50: 3.35 µM
  TGI: 14.7 µM
[24]
  GI50: 5.1 µM
  TGI: 12.7 µM
[25]
  GI50: 1.74 µM
  TGI: 7.67 µM
[26]
  GI50: 6.77 µM
  TGI: > 25 µM
[27]
  GI50: 3.58 µM
  TGI: 9.3 µM
[28]
  GI50: 3.3 µM
  TGI: > 25 µM
[29]
  GI50: 4.64 µM
  TGI: 10.2 µM
